Experimental findings from ChEMBL document CHEMBL5532677, “From Hit to Lead: Structure-Based Optimization of Novel Selective Inhibitors of Receptor-Interacting Protein Kinase 1 (RIPK1) for the Treatment of Inflammatory Diseases” (J Med Chem, 2024) are described below.

Molecules are shown by their SMILES. The source made the active and inactive calls. No cut-off for these calls is given here.

Assay [1] deals with Mus musculus. Briefly: Anti-inflammatory activity in BALB/c mouse model of IMQ-induced psoriasis assessed as reduction in skin thickening at 100 mg administered topically as 1% ointment measured daily for 7 days by H and E staining based analysis. Particulars: route top, time 7.0 day. It counts as functional, organism-based.
In assay [2] the test system is Mus musculus. The assay can be described thus: Protection against TNF-alpha induced C57BL/6 mouse model of systemic inflammatory response syndrome assessed as reduction in IL-6 level at 10 mg/kg, po pretreated for 15 mins followed by TNF-alpha administration and measured for 6 hrs by ELISA. The format is functional, organism-based. Particulars: time 375.0 min.
Assay [3] concerns Mus musculus. The assay can be described thus: Protection against TNF-alpha induced C57BL/6 mouse model of systemic inflammatory response syndrome assessed as reduction in temperature loss at 10 mg/kg, po pretreated for 15 mins followed by TNF-alpha administration and measured for 6 hrs. The format is functional, organism-based. Conditions: time 375.0 min.
For assay [4], the system named is Mus musculus. Briefly: Anti-inflammatory activity in BALB/c mouse model of IMQ-induced psoriasis assessed as reduction in skin scaling by measuring reduction in PASI score at 100 mg administered topically as 1% ointment measured daily for 7 days by H and E staining based analysis. The format is functional, organism-based. Conditions: route top, time 7.0 day.
In assay [5] the test system is Mus musculus. The assay can be described thus: Protection against TNF-alpha induced C57BL/6 mouse model of systemic inflammatory response syndrome assessed as reduction in IL-1beta level at 10 mg/kg, po pretreated for 15 mins followed by TNF-alpha administration and measured for 6 hrs by ELISA. The format is functional, organism-based. Particulars: time 375.0 min. On the technique in general: In an ELISA, binding on a coated surface is turned into a signal by an enzyme label.

The subject of assay [6] is Mus musculus. Briefly: Protection against TNF-alpha induced C57BL/6 mouse model of systemic inflammatory response syndrome assessed as increase in survival rate at 10 mg/kg, po pretreated for 15 mins followed by TNF-alpha administration and measured for 6 hrs (reference value: 10%). The format is functional. Conditions: C57BL/6, 6.25 h, time 375 min.
Assay [7] concerns Mus musculus. The assay can be described thus: Anti-inflammatory activity in BALB/c mouse model of IMQ-induced psoriasis assessed as improvement in erythema at 100 mg administered topically as 0.005% ointment measured daily for 7 days by H and E staining based analysis. It counts as functional, organism-based. Particulars: route top, time 7.0 day.
Assay [8] concerns Mus musculus. Briefly: Anti-inflammatory activity in BALB/c mouse model of IMQ-induced psoriasis assessed as improvement in skin thickening at 100 mg administered topically as 0.005% ointment measured daily for 7 days by H and E staining based analysis. Conditions: route top, time 7.0 day. It counts as functional, organism-based.
Assay [9] relates to Mus musculus. Briefly: Anti-inflammatory activity in BALB/c mouse model of IMQ-induced psoriasis assessed as reduction in PASI score at 100 mg administered topically as 0.005% ointment measured daily for 7 days by H and E staining based analysis. It counts as functional, organism-based. Particulars: route top, time 7.0 day.

As for `CN1C(=O)[C@@H](NC(=O)c2n[nH]c(Cc3ccccc3)n2)COc2ccccc21` [GSK2982772], the outcome with Mus musculus [1], in the assay with Mus musculus [2], in the assay with Mus musculus [3], in the assay with Mus musculus [4] and in the assay on Mus musculus [5] was Active. Further, in the assay with Mus musculus [6], the survival at 10 mg/kg worked out at 70%.

`C=C1/C(=C\C=C2/CCC[C@]3(C)[C@@H]([C@H](C)/C=C/[C@@H](O)C4CC4)CC[C@@H]23)C[C@@H](O)C[C@@H]1O`: the outcome with Mus musculus [7] and with Mus musculus [8] was inactive. In addition, in the assay on Mus musculus [9], the outcome was Active.
